For 7 molecules, MIC results are on record in DBAASP.

≈ marks a conversion by molar mass, not a printed value. Where “and” joins values, the source holds several entries; their conditions need not be identical. Equal values may be shown once.

Among the test systems are Micrococcus luteus; Saccharomyces cerevisiae; Bacillus megaterium Bm11; Escherichia coli D21.
Assay in all cases: ≥ marks a high value that may be exact or a test limit, other limits are often not marked, values filed in µg/mL are converted to µM
Experiment [1] has as its system Escherichia coli ATCC 25922.
Experiment [2] concerns Escherichia coli NBRC 14237.
Experiment [3] has as its system Micrococcus luteus NBRC 12708.
The test system of experiment [4] is Pseudomonas aeruginosa ATCC 15692.
For experiment [5], the system named is Pseudomonas aeruginosa NBRC 12582.
In experiment [6] the test system is Staphylococcus aureus ATCC 25923.
In experiment [7] the test system is Staphylococcus aureus NBRC 12732.
For experiment [8], the system named is Acinetobacter calcoaceticus Ac11.
Experiment [9] concerns Bacillus subtilis ATCC 6051.
Experiment [10] concerns Micrococcus luteus ATCC 9341.
For experiment [11], the system named is Pseudomonas aeruginosa ATCC 27853.
For experiment [12], the system named is Salmonella enterica subsp. enterica serovar Typhimurium LT2.
Experiment [13] has as its system Aspergillus niger CECT 2694.
Experiment [14] relates to Fusarium oxysporum f. sp. lycopersici ATCC 201829.
Experiment [15] deals with Penicillium expansum EPS 26.
For experiment [16], the system named is Rhizopus stolonifer CECT 2344.
Experiment [17] concerns Mycobacterium tuberculosis H37Rv.
Experiment [18] concerns Mycobacterium tuberculosis.
The test system of experiment [19] is Bacillus subtilis IFO 3134.
Experiment [20] has as its system Escherichia coli IFO 12734.
Experiment [21] has as its system Pseudomonas aeruginosa IFO 12582.
The test system of experiment [22] is Staphylococcus aureus IFO 12732.

For `CC(C)C[C@H](NC(=O)[C@H](CC(C)C)NC(=O)[C@H](CC(N)=O)NC(=O)[C@H](CO)NC(=O)CNC(=O)[C@@H](NC(=O)[C@H](CCCCN)NC(=O)[C@H](CC(C)C)NC(=O)CNC(=O)[C@@H](NC(=O)[C@H](CCCCN)NC(=O)[C@H](CC(C)C)NC(=O)[C@H](CC(C)C)NC(=O)[C@H](CO)NC(=O)CNC(=O)[C@H](CC(C)C)NC(=O)[C@H](CC(C)C)NC(=O)[C@@H](N)CC(N)=O)[C@@H](C)O)C(C)C)C(N)=O` [NLLGSLLKTGLKVGSNLL], the minimal inhibitory concentration (MIC) was 128 µM (≈ 235 µg/mL) in experiment [1]; 12.5 µM (≈ 23 µg/mL) in experiment [2]; at least 50 µM in experiment [3]; 2 µM (≈ 3.68 µg/mL) against Micrococcus luteus; at least 256 µM in experiment [4]; at least 50 µM in experiment [5]. For the same molecule, the minimum inhibitory concentration (MIC) is at least 64 µM against Saccharomyces cerevisiae, 32 µM (≈ 58.9 µg/mL) in experiment [6] and 12.5 µM (≈ 23 µg/mL) in experiment [7].

`CC[C@H](C)[C@H](N)C(=O)N[C@@H](CO)C(=O)N[C@@H](CO)C(=O)N1CCC[C@H]1C(=O)N[C@@H](CC(C)C)C(=O)N[C@@H](Cc1ccccc1)C(=O)N[C@@H](CCCCN)C(=O)N[C@H](C(=O)N[C@@H](CC(C)C)C(=O)N[C@@H](CC(C)C)C(=O)N[C@@H](CO)C(=O)N[C@@H](C)C(=O)N[C@H](C(=O)NCC(=O)N[C@@H](CO)C(=O)N[C@@H](C)C(=O)N[C@@H](CC(C)C)C(=O)N[C@@H](CO)C(=O)N[C@@H](CO)C(=O)N[C@@H](CO)C(=O)NCC(=O)NCC(=O)N[C@@H](CCC(N)=O)C(=O)N[C@@H](CCC(=O)O)C(=O)O)C(C)C)[C@@H](C)O` [ISSPLFKTLLSAVGSALSSSGGQE]: the MIC in experiment [8] is at least 100 µM; against Bacillus megaterium Bm11 it was at least 100 µM; in [9] it was at least 100 µM; against Escherichia coli D21, at least 100 µM; in experiment [10], at least 100 µM; in experiment [11] it was over 100 µM. This molecule came in with a minimum inhibitory concentration (MIC) in experiment [12] of at least 100 µM.

Consider `CC[C@H](C)[C@H](NC(=O)[C@H](CCCCN)NC(=O)[C@H](CCCCN)NC(=O)[C@H](Cc1ccccc1)NC(=O)[C@H](CC(C)C)NC(=O)[C@H](CCCCN)NC(=O)[C@@H](N)Cc1ccccc1)C(=O)N[C@@H](CC(C)C)C(=O)N[C@@H](CCCCN)C(=O)N[C@H](C(=O)N[C@@H](CC(C)C)C(N)=O)C(C)C` [FKLFKKILKVL], for which the minimal inhibitory concentration (MIC) in experiment [13] is 22.4 µM (≈ 30.8 µg/mL); in experiment [14], 1.73 µM (≈ 2.38 µg/mL); in experiment [15] it was at least 35.4 µM; in experiment [16], at least 70.7 µM.

`CC[C@H](C)[C@H](NC(=O)[C@H](CC(C)C)NC(=O)[C@H](CCCCN)NC(=O)[C@H](CC(C)C)NC(=O)[C@H](C)NC(=O)CNC(=O)[C@H](CCCCN)NC(=O)[C@H](C)NC(=O)[C@H](CC(C)C)NC(=O)[C@H](C)NC(=O)CNC(=O)[C@H](Cc1c[nH]c2ccccc12)NC(=O)[C@@H](N)Cc1ccccc1)C(=O)NCC(=O)N1CCC[C@H]1C(=O)NCC(=O)N[C@@H](CO)C(=O)N[C@@H](CC(C)C)C(=O)N[C@@H](Cc1ccccc1)C(=O)N[C@@H](CO)C(=O)N[C@@H](CO)C(=O)N[C@@H](Cc1ccccc1)C(=O)N[C@@H](CO)C(=O)N[C@@H](CCCCN)C(=O)N[C@@H](CCCCN)C(=O)N[C@@H](CC(=O)O)C(=O)O` [FWGALAKGALKLIGPGSLFSSFSKKD]: the MIC in experiment [1] was 12.5 µM and 25 µM; in [17], 29.4 µM (≈ 80.1 µg/mL); in experiment [18], 17.6 µM (≈ 48.1 µg/mL); in [6], 12.5 µM and 25 µM.

In the case of `CC[C@H](C)[C@H](NC(=O)[C@H](C)NC(=O)[C@@H]1CCCN1C(=O)[C@@H](NC(=O)[C@@H](NC(=O)[C@H](CCCCN)NC(=O)[C@H](C)NC(=O)[C@H](C)NC(=O)[C@@H](NC(=O)[C@H](CCCCN)NC(=O)[C@H](C)NC(=O)[C@H](CC(C)C)NC(=O)[C@@H](NC(=O)CNC(=O)[C@H](Cc1ccccc1)NC(=O)[C@H](CC(C)C)NC(=O)CN)C(C)C)C(C)C)C(C)C)C(C)C)C(=O)N[C@@H](C)C(=O)N[C@@H](CCCCN)C(=O)N[C@@H](Cc1cnc[nH]1)C(=O)N[C@@H](Cc1ccccc1)C(N)=O` [GLFGVLAKVAAKVVPAIAKHF], the MIC is 2 µM (≈ 4.27 µg/mL) in experiment [19], 8 µM (≈ 17.1 µg/mL) in experiment [20], 16 µM (≈ 34.2 µg/mL) in experiment [21] and 4 µM (≈ 8.54 µg/mL) in experiment [22].

Turning to `CC[C@H](C)[C@H](NC(=O)[C@H](C)NC(=O)[C@@H]1CCCN1C(=O)[C@@H](NC(=O)[C@@H](NC(=O)[C@H](Cc1cnc[nH]1)NC(=O)[C@H](C)NC(=O)[C@H](C)NC(=O)[C@@H](NC(=O)[C@H](CCCCN)NC(=O)[C@H](C)NC(=O)[C@H](CC(C)C)NC(=O)[C@@H](NC(=O)CNC(=O)[C@H](Cc1ccccc1)NC(=O)[C@H](CC(C)C)NC(=O)CN)C(C)C)C(C)C)C(C)C)C(C)C)C(=O)N[C@@H](C)C(=O)N[C@@H](CCC(=O)O)C(N)=O` [GLFGVLAKVAAHVVPAIAE], the MIC in [19], in experiment [20], in experiment [21] and in experiment [22] was at least 64 µM throughout.

In the case of `CC[C@H](C)[C@H](NC(=O)CNC(=O)[C@H](C)NC(=O)[C@H](CC(C)C)NC(=O)[C@H](CC(C)C)NC(=O)[C@H](CCCN=C(N)N)NC(=O)[C@@H]1CCCN1C(=O)[C@H](C)NC(=O)[C@H](CC(C)C)NC(=O)[C@H](CCCCN)NC(=O)[C@H](CC(C)C)NC(=O)[C@H](CC(C)C)NC(=O)[C@H](C)N)C(=O)N[C@@H](Cc1ccccc1)C(N)=O` [ALLKLAPRLLAGIF], the MIC in experiment [2] is 12.5 µM (≈ 18.7 µg/mL); in [3] it was at least 50 µM; in [5] it was at least 50 µM; in [7], 12.5 µM (≈ 18.7 µg/mL).

Usually MIC stands for the lowest concentration found to suppress growth.
